From article PMC12102759 (Protein Science : A Publication of the Protein Society, 2025) come the findings set out here.

For the experiment, the system named is G3BP1 NFT2. Type of experiment: binding, human. As to conditions: library DMS-CoV, bait G3BP1 NFT2, prey N, listed as aa = residue placed at this position, column sums to 1.

Regarding “RNAPRITFGGPSDSTG S12L (RNAPRITFGGPLDSTG)”, under “peptide RNAPRITFGGPSDSTG”, the “DMS PSSM value, S (position 12)” value is 0.

For the sequence “APRITFGGPSDSTGSN G14K (APRITFGGPSDSTKSN)”, under “peptide APRITFGGPSDSTGSN”, the “DMS PSSM value, G (position 14)” value came to 0.00039.

With “APRITFGGPSDSTGSN S10T (APRITFGGPTDSTGSN)”, the “DMS PSSM value, S (position 10)” value (peptide APRITFGGPSDSTGSN) was determined as 0.01147.

In the case of APRITFGGPSDSTGSN I4Q (APRQTFGGPSDSTGSN), the “DMS PSSM value, I (position 4)” value (peptide APRITFGGPSDSTGSN) is given as 0.

Take “RNAPRITFGGPSDSTG G10V (RNAPRITFGVPSDSTG)”: where the note is “peptide RNAPRITFGGPSDSTG”, the “DMS PSSM value, G (position 10)” value is 0.

On to “RNAPRITFGGPSDSTG P11G (RNAPRITFGGGSDSTG)”, for which, for the setting “peptide RNAPRITFGGPSDSTG”, the “DMS PSSM value, P (position 11)” value is reported as 0.

For the sequence RNAPRITFGGPSDSTG P4W (RNAWRITFGGPSDSTG), for the setting “peptide RNAPRITFGGPSDSTG”, the “DMS PSSM value, P (position 4)” value worked out at 0.

As to RNAPRITFGGPSDSTG R5D (RNAPDITFGGPSDSTG), where the note is “peptide RNAPRITFGGPSDSTG”, the “DMS PSSM value, R (position 5)” value is 0.0001605.

As for APRITFGGPSDSTGSN G8V (APRITFGVPSDSTGSN), the “DMS PSSM value, G (position 8)” value (peptide APRITFGGPSDSTGSN) is listed as 0.0004532.

Turning to “RNAPRITFGGPSDSTG D13K (RNAPRITFGGPSKSTG)”, the “DMS PSSM value, D (position 13)” value (peptide RNAPRITFGGPSDSTG) is listed as 0.

“APRITFGGPSDSTGSN D11W (APRITFGGPSWSTGSN)”: the “DMS PSSM value, D (position 11)” value (peptide APRITFGGPSDSTGSN) was found to be 0.001161.

APRITFGGPSDSTGSN A1Q (QPRITFGGPSDSTGSN): the “DMS PSSM value, A (position 1)” value (peptide APRITFGGPSDSTGSN) is on record as 0.01117.

Take APRITFGGPSDSTGSN T5A (APRIAFGGPSDSTGSN): the “DMS PSSM value, T (position 5)” value (peptide APRITFGGPSDSTGSN) turned out to be 0.

Regarding APRITFGGPSDSTGSN G7R (APRITFRGPSDSTGSN), the “DMS PSSM value, G (position 7)” value (peptide APRITFGGPSDSTGSN) came out at 0.

Turning to “APRITFGGPSDSTGSN G14D (APRITFGGPSDSTDSN)”, the “DMS PSSM value, G (position 14)” value (peptide APRITFGGPSDSTGSN) was 0.0004838.

Consider “APRITFGGPSDSTGSN T13M (APRITFGGPSDSMGSN)”, for which the “DMS PSSM value, T (position 13)” value (peptide APRITFGGPSDSTGSN) is 0.06406.

Regarding “RNAPRITFGGPSDSTG G10K (RNAPRITFGKPSDSTG)”, under “peptide RNAPRITFGGPSDSTG”, the “DMS PSSM value, G (position 10)” value is 0.

Regarding APRITFGGPSDSTGSN F6M (APRITMGGPSDSTGSN), under “peptide APRITFGGPSDSTGSN”, the “DMS PSSM value, F (position 6)” value is reported as 0.

As for RNAPRITFGGPSDSTG F8T (RNAPRITTGGPSDSTG), the “DMS PSSM value, F (position 8)” value (peptide RNAPRITFGGPSDSTG) was 0.

Regarding “RNAPRITFGGPSDSTG G10I (RNAPRITFGIPSDSTG)”, the “DMS PSSM value, G (position 10)” value (peptide RNAPRITFGGPSDSTG) is 0.

For the sequence “RNAPRITFGGPSDSTG T15I (RNAPRITFGGPSDSIG)”, where the note is “peptide RNAPRITFGGPSDSTG”, the “DMS PSSM value, T (position 15)” value is on record as 1.

As to RNAPRITFGGPSDSTG A3I (RNIPRITFGGPSDSTG), where the note is “peptide RNAPRITFGGPSDSTG”, the “DMS PSSM value, A (position 3)” value is recorded as 0.

For APRITFGGPSDSTGSN G7T (APRITFTGPSDSTGSN), the “DMS PSSM value, G (position 7)” value (peptide APRITFGGPSDSTGSN) was 0.

For RNAPRITFGGPSDSTG N2V (RVAPRITFGGPSDSTG), for the setting “peptide RNAPRITFGGPSDSTG”, the “DMS PSSM value, N (position 2)” value is given as 0.

In the case of APRITFGGPSDSTGSN I4V (APRVTFGGPSDSTGSN), the “DMS PSSM value, I (position 4)” value (peptide APRITFGGPSDSTGSN) came out at 0.03242.

Take APRITFGGPSDSTGSN P2G (AGRITFGGPSDSTGSN): the “DMS PSSM value, P (position 2)” value (peptide APRITFGGPSDSTGSN) is on record as 0.

Turning to RNAPRITFGGPSDSTG F8L (RNAPRITLGGPSDSTG), for the setting “peptide RNAPRITFGGPSDSTG”, the “DMS PSSM value, F (position 8)” value amounted to 0.

As for APRITFGGPSDSTGSN T5E (APRIEFGGPSDSTGSN), under “peptide APRITFGGPSDSTGSN”, the “DMS PSSM value, T (position 5)” value came to 0.4512.

Regarding “APRITFGGPSDSTGSN S10Q (APRITFGGPQDSTGSN)”, the “DMS PSSM value, S (position 10)” value (peptide APRITFGGPSDSTGSN) is 0.008177.

For RNAPRITFGGPSDSTG A3N (RNNPRITFGGPSDSTG), the “DMS PSSM value, A (position 3)” value (peptide RNAPRITFGGPSDSTG) is 0.

Turning to “RNAPRITFGGPSDSTG G10T (RNAPRITFGTPSDSTG)”, the “DMS PSSM value, G (position 10)” value (peptide RNAPRITFGGPSDSTG) was determined as 0.

Turning to “RNAPRITFGGPSDSTG P11A (RNAPRITFGGASDSTG)”, under “peptide RNAPRITFGGPSDSTG”, the “DMS PSSM value, P (position 11)” value is listed as 0.

“APRITFGGPSDSTGSN S10F (APRITFGGPFDSTGSN)”: the “DMS PSSM value, S (position 10)” value (peptide APRITFGGPSDSTGSN) is given as 0.001618.

On to RNAPRITFGGPSDSTG G9A (RNAPRITFAGPSDSTG), for which the “DMS PSSM value, G (position 9)” value (peptide RNAPRITFGGPSDSTG) is recorded as 0.

“APRITFGGPSDSTGSN G14N (APRITFGGPSDSTNSN)”: the “DMS PSSM value, G (position 14)” value (peptide APRITFGGPSDSTGSN) was determined as 0.000305.

Turning to “APRITFGGPSDSTGSN G14L (APRITFGGPSDSTLSN)”, the “DMS PSSM value, G (position 14)” value (peptide APRITFGGPSDSTGSN) was found to be 0.0229.

With RNAPRITFGGPSDSTG R5L (RNAPLITFGGPSDSTG), for the setting “peptide RNAPRITFGGPSDSTG”, the “DMS PSSM value, R (position 5)” value was 0.01198.

For “RNAPRITFGGPSDSTG G16K (RNAPRITFGGPSDSTK)”, where the note is “peptide RNAPRITFGGPSDSTG”, the “DMS PSSM value, G (position 16)” value turned out to be 0.

In the case of “RNAPRITFGGPSDSTG S14N (RNAPRITFGGPSDNTG)”, the “DMS PSSM value, S (position 14)” value (peptide RNAPRITFGGPSDSTG) worked out at 0.6905.

Take “RNAPRITFGGPSDSTG S12G (RNAPRITFGGPGDSTG)”: the “DMS PSSM value, S (position 12)” value (peptide RNAPRITFGGPSDSTG) worked out at 0.

As to APRITFGGPSDSTGSN R3N (APNITFGGPSDSTGSN), under “peptide APRITFGGPSDSTGSN”, the “DMS PSSM value, R (position 3)” value stood at 0.0002259.
